Laboratory results published in patent publication US5661182A, “Method for lowering oxygen affinity of hemoglobin in redcell suspensions, in whole blood and in vivo” (Virginia Commonwealth University, priority 1995, dated 1997).
“Also recorded” adds a separate entry of the source.

Legend:
[1] = target: hemoglobin in fresh bovine red blood cells (Bos taurus, UniProt P01966+P02070); assay: Oxygen binding of fresh bovine red blood cells (p50); type: cell-based; conditions: for RBC (p50): bovine RBC, effector 0.5 mM, pH 7.4, 37 °C
hemoglobin in fresh bovine red blood cells, sequence (P01966 whole entry): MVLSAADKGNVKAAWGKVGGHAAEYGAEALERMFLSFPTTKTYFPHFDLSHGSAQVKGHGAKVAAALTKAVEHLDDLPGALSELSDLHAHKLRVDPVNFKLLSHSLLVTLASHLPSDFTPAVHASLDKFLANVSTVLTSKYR
hemoglobin in fresh bovine red blood cells, sequence (P02070 whole entry): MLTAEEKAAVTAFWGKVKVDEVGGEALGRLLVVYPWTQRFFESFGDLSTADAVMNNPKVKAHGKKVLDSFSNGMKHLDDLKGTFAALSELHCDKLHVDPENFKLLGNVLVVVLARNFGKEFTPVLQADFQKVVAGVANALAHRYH
Experimental: (§1) Human blood was collected on heparin from healthy nonsmoking donors. Bovine blood was provided by Pr Delpech, INA (Paris-Grignon). Red blood cells were washed three times in isotonic buffer, kept at 4° C., and used within 24 h after sampling. Hemoglobin Yakima, a high-oxygen-affinity variant [α2 β2 99 (G1) Asp>>His], was obtained from a known heterozygous carrier. Fresh Yakima red cells were processed in the same way as described above.
(§2) L3,5 and L3,4,5 were provided by Dr. Lalezari (Montefiore Hospital, New York); RSR-4 [2-[4-[[(3,5-dichloroanilino)carbonyl]methyl]phenoxy]-2-methylpropionic acid]and RSR13 [2-4-[[(3,5- dimethylanilino)carbonyl]methyl]phenoxy]-2-methylpropionic acid] have been synthesized following the procedure described in Randad et al. (J. Med. Chem. 34,752 (1991)). Human serum albumin (HSA), bovine serum albumin (BSA) and 4,4'diisothiocyanatostilbene-2,2'-disulfonate (DIDS) were purchased from Sigma (St. Louis, Mo.). Due to their low solubility in aqueous buffer, 10 mM stock solutions of the compounds were prepared in a slight exccess of sodium bicarbonate and back-titrated to pH 7.4. For example, RSR-4 or RSR-13 was dissolved at 60° C. in a 140 mM NaCl and 50 mM bis-Tris buffer at room temperature upon progressive addition of NaHCO3 to obtain 10 mM stock solutions. The pH was carefully adjusted to 7.4 after complete solubilization and before use of the solutions. Fresh solutions were prepared each week. Stock solutions of DIDS (1 mM) were prepared, in the dark, on the day of the experiments in a pH 7.4 buffer. Human serum albumin (defatted HSA) and bovine serum albumin (BSA) were prepared freshly as 1 mM stock solutions, pH 7.4. Equilibrium Measurements. The allosteric modulation of the effectors on freshly prepared solutions of hemoglobin or red cell suspensions was measured by the change in p50, the partial pressure of oxygen for half-saturation. Oxygen equilibrium curves (OEC) were carried out with the Hemox analyzer (TCS, Southampton, Pa.) under the following conditions: pH 7.4, 140 mM NaCl and 50 mM bis-Tris buffer at 37° C. In all experiments, the concentration of hemoglobin in the red cell suspensions was 20-25 μM hemoglobin tetramer (Hb4) as measured by Drabkin's method (cyanomethemoglobin) at the end of each recording. The final concentration of the allosteric effector in the cuvette was 0.5 mM, resulting in an effector/Hb4 ratio of 20 in the absence of albumin. OEC were also made in the same buffer containing 12.5, 25, 50, and 100 μM HSA (for human red cell suspensions) or BSA (for bovine cell suspensions). The serum albumin experiments were carried out with traces of an antifoaming agent. This agent has no deleterious effect on the red cell suspensions. The molar ratio of albumin to tetrameric hemoglobin was varied from 0.5 (at 12.5 μM HSA) to 4 (at 100 μM HSA); in whole blood this ratio is approximately 0.3 (0.7 mM albumin plus plasma proteins/2.25 mM Hb4). Therefore, the concentration of albumin used in the present studies was always larger relative to tetrameric hemoglobin than that found in whole blood.
Bovine Red Cell Studies. Table 2 presents data for oxygen binding measurements for fresh bovine red blood cells and isolated Hb solutions on addition of the effectors L3,5, RSR-4, and RSR-13. The experimental conditions used were the same as described in conjunction with Table 1 for human red blood cells. The oxygen equilibrium curves for Hb solutions were made at pH 7.2, 100 mM NaCl and 50 mM bis-Tris buffer at 25° C. Catalase (20 μg/mL) and 50 μM EDTA were added to oppose oxidation of the hemes. The concentration of the effectors was 0.5 mM in all conditions. In Table 2, BSA is bovine serum albumin and P50 (mmHg) is the pO2 for 50% saturation.

[2] = target: intracellular hemoglobin, human red cells (Homo sapiens, UniProt P68871+P69905); assay: Kinetics of interaction between effectors and intracellular hemoglobin (absorbance at 560 nm) in human red cell suspensions; type: cell-based; conditions: for ΔA560: effector 0.5 mM, room air
intracellular hemoglobin, human red cells, sequence (P69905 whole entry): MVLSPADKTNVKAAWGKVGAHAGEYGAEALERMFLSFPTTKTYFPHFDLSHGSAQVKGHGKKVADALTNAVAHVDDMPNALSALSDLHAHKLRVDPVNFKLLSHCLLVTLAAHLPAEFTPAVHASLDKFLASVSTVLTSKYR
intracellular hemoglobin, human red cells, sequence (P68871 whole entry): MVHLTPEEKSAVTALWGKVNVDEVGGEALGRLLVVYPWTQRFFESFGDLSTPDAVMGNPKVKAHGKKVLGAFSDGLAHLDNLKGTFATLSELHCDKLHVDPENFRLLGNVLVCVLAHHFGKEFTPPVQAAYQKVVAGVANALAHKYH
Experimental: (§3) Equilibrium oxygen binding curves were also recorded for red cell suspensions (10% hematocrit) that had been reacted for 30 min in the dark at 37° C. with 20 μM DIDS, a specific inhibitor of the red cell membrane anion channel. Kinetic Experiments. The kinetics of the interaction between the effectors and intracellular hemoglobin were measured in the absence and presence of varying concentrations of HSA. The red cell suspensions were equilibrated under room air (pO2 =140 mmHg) at 37° C. in the optical cuvette of the Hemox analyzer, which provides a constant stirring of the suspensions. […] Changes in absorbance were recorded and stored on tape for further analyses.
An increase in absorbance at 560 nm (εmax for deoxy-Hb in the visible spectrum) under room air indicates the formation of partially deoxygenated Hb in the red cells and a decreased oxygen affinity of Hb, provided that the pH is held constant.
Examples of these kinetic recordings are illustrated in FIG. 4. Two indices were calculated from the experimental values: ΔA560 is the difference in optical density from the base line to the plateau and t1/2 is […]. […]

[3] = target: hemoglobin in fresh human red blood cells (Homo sapiens, UniProt P68871+P69905); assay: Oxygen equilibrium curves of fresh human red cell suspensions (p50); type: cell-based; conditions: for potency in raising p50 / lowering the oxygen affinity: fresh human red cells, absence of albumin; for P50: effector 0.5 mM, pH 7.4, 37 °C; for inhibition of the allosteric effect by albumin: human red cells, 50 or 100 μM HSA
hemoglobin in fresh human red blood cells, sequence (P69905 whole entry): as the sequence (P69905 whole entry) above
hemoglobin in fresh human red blood cells, sequence (P68871 whole entry): as the sequence (P68871 whole entry) above
Experimental: as §1, §2
as §3, with “analyses. […]” for “analyses.”

hemoglobin = assay: Comparison of allosteric effector strength (right shift of oxygen equilibrium curve); type: biochemical; conditions: compounds of FIG. 1
[4] = time for half-ΔA560, effector 0.5 mM, 50 μM HSA, 37 °C
[5] = time for half-ΔA560, effector 0.5 mM, 100 μM HSA, 37 °C
[6] = time for half-ΔA560, effector 0.5 mM, no HSA, 37 °C
[7] = human RBC suspension, 50 μM HSA
[8] = human RBC suspension, 100 μM HSA
[9] = time for half-ΔA560, effector 0.5 mM, 12.5 μM HSA, 37 °C
[10] = human RBC pre-incubated 30 min with DIDS, no HSA

RBC (p50) ([1]; no BSA) | order of potency in lowering the oxygen affinity ([1]; bovine red cells) | p50 shift relative to control at 500 µM ([1]; bovine red cells, 0.5 mM) | ΔA560 ([2]; 50 μM HSA, 37 °C) | ΔA560 ([2]; 100 μM HSA, 37 °C) | ΔA560 ([2]; no HSA, 37 °C) | t1/2 ([2]; in the absence of albumin) | t1/2 [2, 4] | t1/2 [2, 5] | t1/2 [2, 6] | P50 [3, 7] | P50 [3, 8] | P50 ([3]; human RBC suspension, no HSA) | ΔA560 ([2]; 12.5 μM HSA, 37 °C) | t1/2 [2, 9] | P50 [3, 10] | SMILES | potency in raising p50 / lowering the oxygen affinity [3] | inhibition of the allosteric effect by albumin [3] | allosteric effector strength (hemoglobin) | other results
31 mmHg | RSR-4>>L3,5>RSR-13 | 15% | 0.082 | 0.067 | 0.085 | over 2 min | 2.3 min | 2.08 min | 2.32 min | 34.0 mm Hg | 32.6 mm Hg | 37.8 mm Hg |  |  |  | Cc1cc(C)cc(NC(=O)Cc2ccc(OC(C)(C)C(=O)O)cc2)c1 [RSR-13] | weakest in reducing the oxygen affinity of Hb, relative to L3,5 or RSR-4; also recorded: L3,5≈RSR-4>RSR-13 | much less affected by serum albumin, and its effect persists even in the presence of 100 1-M HSA | L3,5≈RSR-4>RSR-13 | change in t1/2 upon addition of albumin ([2]; HSA added): No change
54 mmHg | RSR-4>>L3,5>RSR-13 |  | 0.086 | 0.042 | 0.152 | 1 min | 1.27 min | 1.45 min | 1 min | 44.0 mm Hg | 36 mm Hg | 52.5 mm Hg | 0.107 | 1.53 min | 49 mm Hg | CC(C)(Oc1ccc(CC(=O)Nc2cc(Cl)cc(Cl)c2)cc1)C(=O)O [RSR-4, 2-[4-[[(3,5-dichloroanilino)carbonyl]methyl]phenoxy]-2-methylpropionic acid] | comparable; also recorded: almost equally potent effectors; also recorded: L3,5≈RSR-4>RSR-13 | less inhibited by albumin than the closely related compound L3,5; also recorded: much lower inhibition of RSR-4 by serum albumin than that observed with L3,5; also recorded: much less inhibited by 50 or 100 μM albumin than observed with L3,5 | L3,5≈RSR-4>RSR-13 | RBC (p50) ([1]; 50 μM BSA): 45 mmHg; effect on control p50 ([1]; bovine red cells, 0.5 mM, without and with 50 μM BSA): doubling of the control p50 and persists even in the presence of 50 μM BSA; P50 ([3]; human RBC suspension, 12.5 μM HSA): 48.5 mm Hg
35 mmHg | RSR-4>>L3,5>RSR-13 | 30% | 0.058 | 0.029 | 0.181 |  | 1.83 min | 1.92 min | 0.55 min | 32 mm Hg | 28 mm Hg | 60 mm Hg | 0.124 | 1.54 min | 54 mm Hg | CC(C)(Oc1ccc(NC(=O)Nc2cc(Cl)cc(Cl)c2)cc1)C(=O)O [L3,5, reference compound] | comparable; also recorded: almost equally potent effectors; also recorded: L3,5≈RSR-4>RSR-13 |  | L3,5≈RSR-4>RSR-13; also recorded: much stronger allosteric effect | 
